Test results published in ChEMBL document CHEMBL1126062, “Benzofuran bioisosteres of hallucinogenic tryptamines” (J Med Chem, 1992).

Columns and labels:
[1] = molecular target: Serotonin 2 (5-HT2) receptor (Rattus norvegicus, UniProt P30994+P08909+P14842); assay: Affinity on 5-hydroxytryptamine 2 receptor labeled by [125I]DOI; format: protein assay
[2] = molecular target: T1, 5-hydroxytryptamine receptor 1A (Rattus norvegicus, UniProt P19327); assay: Affinity on 5-hydroxytryptamine 1A receptor labeled by [3H]8-OH-DPAT
T1 sequence (P19327 whole entry): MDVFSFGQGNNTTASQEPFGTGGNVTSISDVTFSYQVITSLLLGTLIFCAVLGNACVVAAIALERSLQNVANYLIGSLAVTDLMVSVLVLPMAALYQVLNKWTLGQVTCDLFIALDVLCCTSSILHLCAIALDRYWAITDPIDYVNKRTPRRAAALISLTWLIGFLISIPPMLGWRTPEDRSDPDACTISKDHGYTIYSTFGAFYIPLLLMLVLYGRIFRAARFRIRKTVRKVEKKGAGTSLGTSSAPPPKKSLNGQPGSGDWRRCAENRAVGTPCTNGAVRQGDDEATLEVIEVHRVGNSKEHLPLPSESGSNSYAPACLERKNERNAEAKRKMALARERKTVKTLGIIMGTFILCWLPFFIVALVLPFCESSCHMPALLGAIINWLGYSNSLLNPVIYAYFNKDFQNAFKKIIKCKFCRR

| SMILES | Ki [1] | Ki [2] |
| --- | --- | --- |
| COc1ccc2occ(CCN(C)C)c2c1 | 95 nM | 101 nM |
| COc1ccc2occ(CC(C)N)c2c1 (racemic) | 42 nM | 445 nM |
| COc1ccc2occ(CC(C)N)c2c1 (stereo in doubt; 4) | 27.1 nM | 779 nM |
| COc1ccc2[nH]cc(CCN(C)C)c2c1 [MEBUFOTENIN] |  | 69 nM |
